Laboratory results from publication PMC4723269 (Archives of biochemistry and biophysics, 2015).

Molecular target: T1, Mtm1p (YGR257cp) (Saccharomyces cerevisiae, UniProt P53320)
T1 sequence (P53320 1-366): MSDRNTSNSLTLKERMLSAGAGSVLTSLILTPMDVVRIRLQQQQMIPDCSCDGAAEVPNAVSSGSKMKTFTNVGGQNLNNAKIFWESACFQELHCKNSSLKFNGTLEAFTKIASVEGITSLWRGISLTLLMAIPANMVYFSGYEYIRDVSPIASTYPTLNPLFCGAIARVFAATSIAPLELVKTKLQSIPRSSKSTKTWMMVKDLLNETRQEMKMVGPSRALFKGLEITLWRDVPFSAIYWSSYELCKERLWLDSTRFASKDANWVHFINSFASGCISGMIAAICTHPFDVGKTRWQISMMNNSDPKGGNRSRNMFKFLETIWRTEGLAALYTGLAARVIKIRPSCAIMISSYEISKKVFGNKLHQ
Assay: stoichiometric tryptophan fluorescence quenching titration
Type: binding

Cc1ncc(COP(=O)(O)O)c(C=O)c1O [PLP, pyridoxal 5′-phosphate]
Kd: 1900 ± 300 nM
